System: mESC Bmi1-luciferase reporter, firefly/renilla ratio, 24 h
Assay: Bmi1-luciferase reporter activators in mESC, dose response, esBAF inhibitor project, mouse embryonic stem cells, cherry-pick (AID 651717);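 further: luciferase knocked into Bmi1 locus with EF-1a renilla as cell number control; rising ratio signals esBAF inhibition which derepresses Bmi1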

SMILES | AC40
C=CCSC1=NNC(c2ccc(C(C)(C)C)cc2)=NN1 | 8.49 µM
CCn1c(=N)n(CC(=O)c2cccc(OC)c2)c2ccccc21 | 8.58 µM
Cc1ccc(C(=O)NNC(=O)c2ccc3ccccc3c2)cc1 | 7.86 µM
CS(=O)(=O)c1ccc2nc(NC(=O)c3ccccc3Br)sc2c1 | 6.16 µM
Cc1ccc(C)c(NC(=O)c2cc(-c3ccccc3O)n[nH]2)c1 | 11.5 µM
O=C(c1ccccc1)c1ccc2ccccc2c1 | 3.04 µM
CSc1nnc(NC(=O)C23CC4CC(CC(C4)C2)C3)s1 | 6.47 µM
O=C1CC(/C=C/c2ccncc2)=Nc2ccccc2N1 | 6.57 µM
O/N=C\c1cnc(N2CCN(c3ccccc3)CC2)s1 | 2.47 µM
COc1ccc(Cc2nnc(NC(=O)c3ccc(OC)cc3OC)s2)cc1 | 12.5 µM
COc1ccc(C(=O)Nc2ccc(C3CC3(Cl)Cl)cc2)cc1 (configuration not stated) | 7.09 µM
COc1ccc(-n2nc(C(=O)NCC(=O)N3CCCC3)c3ccccc3c2=O)cc1Cl | 20.9 µM
O=C(Nc1ccc(SC(F)F)cc1)c1ccc2c(=O)n3c(nc2c1)CCC3 | 2.02 µM
C=CCNc1nc(NCc2ccc(NC(C)=O)cc2)c2sc(-c3ccccc3)cc2n1 | 0.635 µM
Cc1nc(-c2ccccc2)nc2[nH]ccc(=O)c12 | 4.23 µM
O=C(Nc1cccc(O)c1)c1ccc(Br)cc1 | 2.45 µM
CC(C)c1ccc(CNNC(=O)c2ccccc2)cc1 | 2.18 µM
Cc1ccc(NC(=O)C2CCCN(c3ncccn3)C2)cc1C (configuration not stated) | 4.21 µM
CN(CC(=O)Nc1ccccc1Br)C(=O)c1cc2c(s1)CCCCC2 | 2.75 µM
COc1ccc(/C=C2/SC(=O)N(CCNC(=O)CC(NC(C)=O)c3ccccc3)C2=O)cc1 (configuration not stated) | 10.2 µM
CCN1C(=O)C(=CC=CN(C)c2ccccc2)SC1=S | 0.466 µM

SMILES | AC40
O=C(Nc1nc2ccc(Cl)cc2s1)c1cccc(N2C(=O)CCC2=O)c1 | 3.25 µM
CC1CCCN(C(=O)CNC(=O)c2sc3ccccc3c2Cl)C1 (configuration not stated) | 3.96 µM
Cc1cc(N2CCCCC2)nc2ccc(NC(=O)CCC(=O)NCCC(C)C)cc12 | 16.6 µM
Nc1c(Cl)cc(N=Nc2ccccc2)cc1Cl | 3.27 µM
O=C(CN1CCCCC1)Nc1nc(-c2ccccc2)cs1 | 11.5 µM
O=C(NC1CCCCC1)N1CCc2ccccc2C1 | 6.76 µM
CO[C@H]1CN(C)C(=O)c2cc(NC(=O)Nc3ccc4c(c3)OCO4)ccc2OC[C@H](C)NC[C@H]1C | 3.29 µM
CCC(=O)Nc1cccc(-c2nc3ccccc3o2)c1 | 15.7 µM
Oc1cccc(Nc2nc(O)c(/C=C3\C=Nc4ccccc43)s2)c1 | 4.88 µM
Cc1cc2nc(N3CCN(C(=O)c4cccs4)CC3)sc2cc1C | 1.98 µM
COc1ccccc1CNC(=O)C[C@H]1CC[C@@H]2[C@H](COC[C@H](O)CN2C(=O)Nc2ccc(Cl)cc2)O1 | 14.1 µM
CC(=O)Nc1ccc2c(c1Br)Cc1ccccc1-2 | 2.53 µM
CCc1cc(CNC(=O)c2cc(COc3ccc(C)nc3)on2)on1 | 6.87 µM
O=C(CCNS(=O)(=O)c1cccs1)N1CCc2ccccc2C1 | 6.72 µM
N#Cc1ccc(C=NN2CCCCCC2)cc1 | 2.62 µM
COc1ccc2nc3sc(C(=O)NCCN4CCc5ccccc5C4)cc3cc2c1 | 5.77 µM
COc1cc(Cl)c(C)cc1NC(=O)c1cccc(OC)c1OC | 6.31 µM
O=C(NOCc1ccccc1)OCc1ccccc1 | 4.39 µM
CCCC(=O)Nc1nc(-c2ccc(OC)cc2)cs1 | 7.09 µM
CC(C)c1ccc(/C=N/NC(=O)CCNC(=O)c2ccccc2)cc1 | 22.8 µM
C/C(=C\C(=O)c1cccnc1)Nc1ccc(C)c(C)c1 | 3.36 µM

SMILES | AC40
Oc1ccc(Cl)cc1C=NN1CCCCCC1 | 1.37 µM
Clc1ccc(N/N=C/c2cccnc2)cc1 | 2.59 µM
N/C(=N\OC(=O)c1cccnc1)c1ccccc1Cl | 23.6 µM
COc1ccc(Cl)c(-c2cc(C(=O)Nc3ccccc3)[nH]n2)c1 | 0.423 µM
Cc1cc(N2CCOCC2)nc2ccc(NC(=O)CCC(=O)N3CCN(c4ccccc4F)CC3)cc12 | 4.59 µM
Cc1ccc(C)c(OCc2cc(C(=O)N3CC[C@@H]4CCCC[C@H]4C3)no2)c1 | 7.9 µM
Cc1ccc(N=Nc2cc(C)ccc2O)c(C)c1 | 3.74 µM
C[C@H]1CN([C@@H](C)CO)C(=O)CCCn2nncc2CO[C@@H]1CN(C)C(=O)Nc1ccc2c(c1)OCCO2 | 29.2 µM
Cc1cc2oc(=O)cc(CN(C)Cc3ccccc3F)c2cc1Cl | 4.33 µM
COc1ccccc1Cc1c(-c2ccc(C)cc2)nc2ccc(Cl)cn12 | 1.18 µM
Fc1cc(Cl)cc2ccc(-c3ccccc3)nc12 | 1.45 µM
COc1ccccc1/C=C/C=N/n1c(-c2ccccn2)n[nH]c1=S | 9.01 µM
CC(C)Cn1cnc2c(SCc3ccccc3)nc(N)nc21 | 8.9 µM
COC(=O)c1ccc(COC(=O)c2ccc(SC)cc2OC)cc1 | 8.51 µM
COc1cc2ccccc2cc1C(=O)Nc1ccncc1 | 5.2 µM
O=C(Nc1ccc(Cl)c(Cl)c1)c1ccncc1 | 6.32 µM
C=CCn1c(NCc2ccc(OC)cc2O)nc2ccccc21 | 5.58 µM
CCCN1C[C@@H](C)[C@H](OC)CN(C)C(=O)c2cc(NC(=O)c3ccccc3F)ccc2OC[C@H]1C | 5.77 µM
O=C(Nc1ccc2ccccc2c1)c1cccc2ccccc12 | 0.829 µM
O=C(CC(=O)c1ccccc1)c1ccccc1 | 2.47 µM

— PubChem BioAssay AID651717 (Broad Institute, 2012)
